System: Human myeloma SK-Ly-18 cells
Experiment: Therapeutic effect on transplanted tumor in nude mice (Test Example 4)
Assay type: in vivo, BALB/C nu/nu mice
Conditions: intravenous, amount corresponding to 7.5 mg/kg ADM, on the 7th day after transplantation, compared with control group, FIG. 2
Method: Human myeloma SK-Ly-18 cells were suspended in RPMI-1640 medium containing 10% fetal calf serum at a concentration of 2×10^8 cells/ml, and the suspension was mixed with Matrigel (registered trademark; Becton Dickinson Labware, USA) in the ratio of 1:1 (v/v). The mixture (0.1 ml, 1×10^7 cells/mouse) was subcutaneously transplanted into BALB/C nu/nu mice (Clea Japan, Inc.). On the 7th day after the tumor transplantation, a drug-monoclonal antibody conjugate (amount corresponding to 7.5 mg/kg ADM) or ADM (7.5 mg/kg) was intravenously administered to the mice divided in groups each consisting of 5. A control group was given physiological saline in the same manner. The major axis and the minor axis of tumor were measured at intervals, and the tumor volume was calculated as an approximation value of an ellipsoid according to the following equation.
Tumor Volume (mm^3)=(a×b^2)/2
a: major axis (mm) b: minor axis (mm)
The therapeutic effect on the transplanted tumor was evaluated in terms of V/V0, the ratio of the tumor volume on the day of evaluation (V) to that on the day of drug administration (V0).

COc1cccc2c1C(=O)c1c(O)c3c(c(O)c1C2=O)C[C@@](O)(C(=O)CO)C[C@@H]3O[C@H]1C[C@H](N)[C@H](O)[C@H](C)O1 [ADM, Adriamycin, reference compound]
tumor growth inhibiting effect (V/V0): a growth inhibiting effect was not observed
